Measurements taken from patent publication US8772274B1, “Anti-cancer compositions and methods” (The Penn State Research Foundation, priority 2008, dated 2014).
Structures can show the parent of a compound that is named as a salt. Where two headings read alike, the source gives them in different places.

Tests used:
[1] = system: normal human fibroblast cells (FF2441); experiment: MTS cell viability assay, normal fibroblasts; format: cell-based; conditions: FF2441; 24-72 hours; MTS; read-out: Inhibition of growth IC50, Fibroblast cells (FF2441) (Table II)
Description: (§1) 5×10^3 cells per well in 100 μl DMEM-10% FBS are grown in a 96-well plate for 36 or 72 hours, respectively for melanoma (UACC 903, 1205 Lu and WM115) and human fibroblast (FF2441) cell lines and treated with either PBS vehicle or increasing concentrations (3.5-21 μM) of PBIT, PBISe, PEIT or PEISe for 24 hours. Cellular viability compared to control treated cells is measured using the MTS assay (Promega, Madison, Wis.). IC50 (μM) values for each compound in respective cell lines is determined from three independent experiments using GraphPad Prism version 4.01 (GraphPad, San Diego, Calif.), bars, SEM.
Viability of colon adenocarcinoma cells (Caco-2, HT 29, HCT 116, SW 480) and normal fibroblast cells (FF2441) treated with PBIT (1), PBISe (2), PEIT (3) or PEISe (4) is compared. The IC50 value is evaluated by treating with increasing concentrations of PBIT, PEIT, PEISe (10-100 μM) or PBISe (1.6-50 μM) for 24-72 hours and the number of viable cell are quantified using MTS (Promega, Wis.).

[2] = system: MDA-MB-231 breast adenocarcinoma cells; experiment: MTS cell viability assay, MDA-MB-231; format: cell-based, human; conditions: MDA-MB-231 breast adenocarcinoma; 24 h; MTS; read-out: Inhibition Cancer Cells IC50, MDA-MB-231 (Table III)
Description: (§2) Growth inhibitory effects on cultured cells from human vertical growth phase (VGP) melanoma cell line WM115, Lung adenocarcinoma (A549), fibrosarcoma (HT-1080), prostate adenocarcinoma (PC-3), ovarian carcinoma (OVCAR-3), and breast adenocarcinoma (MDA-MB-231) are plated in 96 well plates at a density of 5×10^3 cells/well in 100 μl media. […] Dose response curves for each compound are generated and the IC50 values (μM) determined using GraphPad Prism software. Each experiment is replicated at least 3 times and the average IC50 (μM) values with standard error represented.

[3] = system: colon adenocarcinoma cells (Caco-2, HT 29, HCT 116, SW 480); experiment: MTS viability, four colon cancer cell lines (summary); format: cell-based; conditions: Caco-2, HT 29, HCT 116, SW 480; 24-72 hours; read-out: IC50 range, four colon cancer cell lines
Description: (§3) The IC50 value is evaluated by treating with increasing concentrations of PBIT, PEIT, PEISe (10-100 μM) or PBISe (1.6-50 μM) for 24-72 hours and the number of viable cell are quantified using MTS (Promega, Wis.).

[4] = system: HT-29 colorectal adenocarcinoma cells; experiment: MTS cell viability assay, HT-29; format: cell-based
[5] = system: PC-3 prostate adenocarcinoma cells; experiment: MTS cell viability assay, PC-3; format: cell-based, human; conditions: PC-3 prostate adenocarcinoma; 24 h; MTS; read-out: Inhibition Cancer Cells IC50, PC-3 (Table III)
Description: as §2

[6] = system: iNOS (total nitrate+nitrite in Caco-2 cells); experiment: Nitrite estimation (nitrate/nitrite colorimetric assay); format: cell-based; conditions: 80 μM, 72 hours
Description: Nitrite content in cell culture media is determined using a nitrate/nitrite colorimetric assay kit (Cayman Chemical Company, Ann Arbor, Mich.) essentially as described in Salvucci, O. et al., Cancer Res 2001; 61:318-26. Caco-2 cells (1×10^6) are plated in 60 mm culture dishes in advanced DMEM containing 10% heat treated FBS for 12 hours, growing cells conditioned with phenol-red free DMEM containing 0.5% FBS for an additional 12 hours. Cells are then treated with increasing concentrations of PBIT (40 and 80 μM) or PBISe (2 and 4 μM) dissolved in phenol-red free DMEM (2 ml) containing 0.5% FBS for 72 hours. Culture supernatants are collected and total nitrite (nitrate+nitrite) measured by incubating 80 μL supernatant with enzyme cofactor mixture (10 μL) and nitrate reductase (10 μL) for 2 hours. Total nitrite is measured by the addition of Griess reagent-I and II (50 μL each). A nitrate standard curve (5-35 μM) is simultaneously prepared. Total nitrite present in media alone is subtracted from all experimental values and represented as micromolar nitrite produced following each treatment.

[7] = system: OVCAR-3 ovarian carcinoma cells; experiment: MTS cell viability assay, OVCAR-3; format: cell-based, human; conditions: OVCAR-3 ovarian carcinoma; 24 h; MTS; read-out: Inhibition Cancer Cells IC50, OVCAR-3 (Table III)
Description: as §2

[8] = system: UACC 903 melanoma cell line; experiment: MTS cell viability assay, UACC 903; format: cell-based; conditions: read-out: IC50, UACC 903 (Table I)
Description: (§4) Cellular viability compared to control treated cells is measured using the MTS assay (Promega, Madison, Wis.).

[9] = system: A549 lung adenocarcinoma cells; experiment: MTS cell viability assay, A549; format: cell-based, human; conditions: A549 lung carcinoma; 24 h; MTS; read-out: Inhibition Cancer Cells IC50, A549 (Table III)
Description: as §2

[10] = system: PI3 kinase/Akt3 and MAP kinase signaling in UACC 903 cells; experiment: Western blot analysis of melanoma cell lysates; format: cell-based; conditions: melanoma cells
Description: Melanoma cell line UACC 903 cells (1×10^6) are treated with increasing concentrations (7-21 μM) of PBIT and PBISe for 24 hours and cell lysates examined by Western blot analysis Cell lysates are harvested by addition of lysis buffer containing 50 mM HEPES (pH 7.5), 150 mM NaCl, 10 mM EDTA, 10% glycerol, 1% Triton X-100, 1 mM sodium orthovanadate, 0.1 mM sodium molybdate, 1 mM phenylmethylsulfonyl fluoride, 20 μg/ml aprotinin, and 5 μg/ml leupeptin. Whole cell lysates are centrifuged (≧10,000×g) for 10 minutes at 4° C. to remove cell debris. Protein concentrations are quantitated using the BCA assay (Pierce, Rockford, Ill.), and 30 μg of lysate loaded per lane onto NuPAGE Gels (Life Technologies, Carlsbad, Calif.). Following electrophoresis, samples are transferred to polyvinylidene difluoride membrane (Pall Corporation, Pensacola, Fla.). Blots are probed with antibodies to PRAS40 and phosphorylated PRAS40 (Thr246) (Invitrogen, Carlsbad, Calif.); antibodies to iNOS, cyclin D1, p27, p21, Erk2, α-enolase and secondary antibodies conjugated with horseradish peroxidase from Santa Cruz Biotechnology (Santa Cruz, Calif.); and antibodies to Akt3, phosphorylated-Akt (Ser473), phosphorylated-Erk 1/2 (Thr202/Tyr204), caspase-3 and cleaved PARP from Cell Signaling Technology (Danvers, Mass.). Immunoblots are developed using ECL (Pierce, Rockford, Ill.).

[11] = system: HCT-116 colorectal adenocarcinoma cells; experiment: MTS cell viability assay, HCT-116; format: cell-based
[12] = system: 1205Lu melanoma cell line; experiment: MTS cell viability assay, 1205Lu; format: cell-based; conditions: read-out: IC50, 1205Lu (Table I)
Description: as §4

[13] = Toxicity of topical application in vivo
Description: Blood collected from the control and experimental animals, at the end of treatment (day 29), are analyzed for SGOT, SGPT (representing liver and cardiac toxicity) and alkaline phosphatase (for kidney and cardiac toxicity). Additionally, concentrations of metabolites (glucose, creatinine, urea nitrogen and total protein) in serum are also determined.

[14] = system: A549, Caco-2, HT-1080, PC-3, OVCAR-3, MDA-MB-231, WM115; experiment: MTS viability, all cancer cell lines tested (summary); format: cell-based, human; conditions: Table III; read-out: concentration decreasing cell viability by 50% (IC50), cancer cell lines of Table III
Description: as §2

[15] = system: HT-1080 fibrosarcoma cells; experiment: MTS cell viability assay, HT-1080; format: cell-based, human; conditions: HT-1080 fibrosarcoma; 24 h; MTS; read-out: Inhibition Cancer Cells IC50, HT-1080 (Table III)
Description: as §2

[16] = system: Caco-2 colon adenocarcinoma cells; experiment: MTS cell viability assay, Caco-2; conditions: MTS
Description: In vitro inhibitory efficacy is measured using 3-(4,5-dimethylthiazol-2-yl)-5-(3-carboxymethoxyphenyl)-2-(4-sulfophenyl)-2H-tetrazolium (MTS) assay (Promega, Madison, Wis.). […] Cells are treated with either vehicle control, PBS, PBIT (40-120 μM) or PBISe (2.4-10 μM) for 72 h. The percentages of viable cells compared to control PBS treated cells are determined using MTS assay and IC50 values calculated using GraphPad Prism version 4.01 (GraphPad software, San Diego, Calif.). An IC50 value for each compound is determined by at least three independent experiments and represented with a standard error.
as §3

[17] = system: WM115 melanoma cell line; experiment: MTS cell viability assay, WM115
Description: as §1
Growth inhibitory effects on cultured cells from human vertical growth phase (VGP) melanoma cell line WM115, Lung adenocarcinoma (A549), fibrosarcoma (HT-1080), prostate adenocarcinoma (PC-3), ovarian carcinoma (OVCAR-3), and breast adenocarcinoma (MDA-MB-231) are plated in 96 well plates at a density of 5×10^3 cells/well in 100 μl media. The cells are treated 36 hours later with PBISe (0.19-100 μM), PBIT (10-100 μM), PEIT 10-100 μM), or PEISe (10-100 μM) for 24 h and cell viability measured using MTS assay. Dose response curves for each compound are generated and the IC50 values (μM) determined using GraphPad Prism software. Each experiment is replicated at least 3 times and the average IC50 (μM) values with standard error represented.

[18] = system: SW-480 colorectal adenocarcinoma cells; experiment: MTS cell viability assay, SW-480; format: cell-based; conditions: Homo sapiens, SW480, read-out: Inhibition of growth IC50, last Colorectal adenocarcinoma row (Table II)
[19] = read-out: Inhibition of growth IC50, Caco-2 (Table II), Caco-2, 24-72 hours

Question: With `N=C(N)[Se]CCc1ccccc1` (as salt: hydrobromid) [PEISe, s-2-phenylethylisoselenourea hydrobromide] as the molecule, how does the melting point read?
Answer: 140 to 142 °C

Question: With `Br.Br.N=C(N)SCCc1ccc(CCSC(=N)N)cc1` [PBIT, s,s′-1,4-phenylene-bis(1,2-ethanediyl)bis-isothiourea dihydrobromide, reference compound] as the molecule, how does the IC50 [1] read?
Answer: > 100 µM

Question: And the IC50 [2]?
Answer: > 100 µM

Question: And the IC50 [3]?
Answer: 59 to 100 µM

Question: What about the IC50 ([4]; HT-29, 24-72 hours, MTS, read-out: Inhibition of growth IC50, HT-29 (Table II)) of the same molecule?
Answer: > 100 µM

Question: What about the IC50 [5] of the same molecule?
Answer: > 100 µM

Question: What about the “total nitrate+nitrite levels compared to control PBS treated cells” value [6] of the same molecule?
Answer: significantly reduces

Question: And the IC50 [7]?
Answer: > 100 µM

Question: And the IC50 ([8]; UACC 903 melanoma, 24 hours treatment, MTS)?
Answer: > 100 µM

Question: And the IC50 [9]?
Answer: > 100 µM

Question: And the iNOS expression ([10]; FIG. 4B)?
Answer: elevates

Question: What about the “cyclin D1 levels” value ([10]; FIG. 4C) of the same molecule?
Answer: does not alter

Question: What about the IC50 ([11]; HCT-116, 24-72 hours, MTS, read-out: Inhibition of growth IC50, HCT-116 (Table II)) of the same molecule?
Answer: > 100 µM

Question: And the IC50 ([12]; 1205Lu melanoma, 24 hours treatment, MTS)?
Answer: > 100 µM

Question: What about the “serum enzyme and metabolite levels, topical application” value ([13]; day 29, SGOT, SGPT, alkaline phosphatase, glucose, creatinine, urea nitrogen, total protein) of the same molecule?
Answer: no significant differences

Question: And the “body weight, topical application” value ([13]; topical every day, 29 days)?
Answer: no detectable differences

Question: And the IC50 [14]?
Answer: > 100 µM

Question: What about the IC50 [15] of the same molecule?
Answer: > 100 µM

Question: And the IC50 ([16]; read-out: Inhibition Cancer Cells IC50, Caco-2 (Table III), Caco-2 colorectal adenocarcinoma)?
Answer: 59.4 ± 3.8 µM

Question: And the IC50 [16, 19]?
Answer: 59.4 ± 3.83 µM

Question: What about the IC50 ([17]; read-out: IC50, WM115 (Table I), WM115 melanoma, 24 hours treatment, MTS) of the same molecule?
Answer: > 100 µM

Question: And the IC50 ([17]; read-out: Inhibition Cancer Cells IC50, WM115 (Table III), WM115 melanoma, 24 h, MTS)?
Answer: > 100 µM

Question: What does the source list for `N=C(N)[Se]CCc1ccccc1` [PEISe, s-2-phenylethylisoselenourea hydrobromide]?
Answer: IC50 ([4]; Homo sapiens, HT-29, read-out: Inhibition of growth IC50, HT-29 (Table II)): 21.9 ± 2.1 µM; IC50 [18]: > 100 µM; IC50 ([8]; Homo sapiens, UACC-903, 24 h): > 100 µM; IC50 ([11]; Homo sapiens, HCT-116, read-out: Inhibition of growth IC50, HCT-116 (Table II)): > 100 µM; IC50 ([12]; Homo sapiens, 1205Lu, 24 h): > 100 µM; IC50 [16, 19]: 16 ± 2 µM; IC50 ([17]; Homo sapiens, WM-115, 24 h, read-out: IC50, WM115 (Table I)): ~80 µM
